Molecules are shown by their SMILES.

As usually defined, the IC50 is the midpoint of a concentration-inhibition curve. The low end stands for greater potency in that assay, the high end for weaker potency in that assay.

The target in the test is Cyclin-H/Cyclin-dependent kinase 7 (Homo sapiens, UniProt P51946+P50613). In words: Inhibition of CDK7/Cyclin H (unknown origin).
Chain of Cyclin-H/Cyclin-dependent kinase 7 (P51946 whole entry): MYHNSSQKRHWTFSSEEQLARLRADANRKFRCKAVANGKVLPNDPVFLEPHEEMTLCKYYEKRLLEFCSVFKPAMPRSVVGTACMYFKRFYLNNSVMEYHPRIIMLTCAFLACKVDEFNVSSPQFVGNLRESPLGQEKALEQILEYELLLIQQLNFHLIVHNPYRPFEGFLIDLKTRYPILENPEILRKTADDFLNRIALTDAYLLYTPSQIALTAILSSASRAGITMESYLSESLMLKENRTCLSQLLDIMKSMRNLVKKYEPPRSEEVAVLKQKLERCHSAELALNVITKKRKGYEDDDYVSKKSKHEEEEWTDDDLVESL
Chain of Cyclin-H/Cyclin-dependent kinase 7 (P50613 whole entry): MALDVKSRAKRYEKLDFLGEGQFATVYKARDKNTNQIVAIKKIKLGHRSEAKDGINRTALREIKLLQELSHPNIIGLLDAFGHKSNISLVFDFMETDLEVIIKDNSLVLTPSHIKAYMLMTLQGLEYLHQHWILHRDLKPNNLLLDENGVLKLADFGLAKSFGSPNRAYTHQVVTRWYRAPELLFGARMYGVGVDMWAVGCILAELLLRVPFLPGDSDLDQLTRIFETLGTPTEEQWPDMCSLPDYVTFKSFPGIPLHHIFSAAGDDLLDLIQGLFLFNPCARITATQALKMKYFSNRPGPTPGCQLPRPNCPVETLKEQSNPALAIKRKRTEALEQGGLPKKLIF
In turn, `CN(C)C/C=C/C(=O)Nc1ccc(C(=O)N2CCC[C@@H](Nc3ncc(Cl)c(-c4c[nH]c5ccccc45)n3)C2)nc1` yielded an IC50 of 402 nM.

`C=CC(=O)Nc1ccc(C(=O)N2CCC[C@@H](Nc3ncc(Cl)c(-c4c[nH]c5ccccc45)n3)C2)nc1` came in with an IC50 of 919 nM. As to `CN(C)C/C=C/C(=O)Nc1ccc(N2CCC[C@@H](Nc3ncc(Cl)c(-c4c[nH]c5ccccc45)n3)C2)nc1`, the IC50 was 74 nM. For the compound `CN(C)C/C=C/C(=O)Nc1ccc(O[C@@H]2CCC[C@@H](Nc3ncc(Cl)c(-c4c[nH]c5ccccc45)n3)C2)c(F)c1`, half-maximal inhibition (IC50) was put at 269 nM.

The values above are taken from BindingDB's records for doi:10.1016/j.ejmech.2021.113481 (Harvard Medical School, 2021).
